Data set [1] can be described thus: In vivo toxicity in MGC-803 bearing mice (body weight, blood biochemistry, H&E). The arrangement: species or system nude mice. Here is the method: The bodyweight of mice was recorded during the treatment every 3 days. […] Blood samples and organs were collected after mice were executed.
A human gastric cancer subcutaneous transplantation tumour model was established with MGC-803 cells. After the tumour volume reaches 100 mm3 the MGC-803 bearing mice were randomised into 3 groups and intraperitoneal injection with normal saline or drugs continuously for 21 days. Tumour volume was measured every 3 days (Length × Width2/2). Mice were executed after treatment. 500 μL blood samples was collected each mouse, samples were then centrifuged at 2000 g for 10 min for biochemistry analysis. Tumour and organs tissues were harvested for H&E staining or immunochemistry detection. The experiments in the study were performed comply with the protocols approved by the Institutional Animal Care and Use Committee, Zhengzhou University.

The subject of a further data set is HUEVC cells. Briefly: MTT antiproliferative assay, HUEVC normal cells. It counts as cell-based. As to conditions: exposure for 48 h, non-cancer cell line. Here is the method: (§1) Furthermore, MGC-803 cells were more sensitive to the compounds than HCT-116, PC-3 cells MCF-7 cells. Moreover, we chose two other common gastric cancer cell lines (HGC-27 and SGC-7901) and another two normal cells GES-1 and HUEVC cells to examine for the inhibitory activity of compound 9i.
(§2) Cell lines used were cultured in humidified incubator in a humidified atmosphere of 5% CO2 and 95% air. The RPMI-1640 medium was supplemented with 10% foetal bovine serum, penicillin (100 U/ml) and streptomycin (0.1 mg/ml).
(§3) Cell lines were seeded into 96-well plates and incubated for 24 h. Then cells were treated with different concentrations of compounds. And after another 48 h, MTT reagent (20 μL per well) was added to each well and then incubated at 37 °C for 4 h. After the suspension was discarded, formazan was then dissolved with DMSO. Absorbencies of formazan solution were measured at 490 nm. The IC50 values of tested compounds were calculated by SPSS version 17.0.

The subject of data set [2] is MGC-803 and SGC-7901 cells. Briefly: Colony formation assay in gastric cancer cells. It counts as cell-based. As to conditions: 150 nM, 7 days. The source says: Because of the potent inhibitory activity on cell viability of compound 9i, we next explored the effects of compound 9i on cell proliferation in MGC-803 and SGC-7901 cells.
Figure 6. Gastric cancer cell proliferation inhibition inhibited by 9i. Density ratios relative to β-Actin were shown on the top of each Western blotting band. (A,B) Cell growth curves of in MGC-803 and SGC-7901 cells after the treatment with indicated concentrations of 9i for different hours; (C,D). Gastric cancer cell colony formation, cells were treated for 7 days; (E) Cell cycle distribution of MGC-803 and SGC-7901 after the treatment with indicated concentrations of 9i for 24 h; (F,G) Cell cycle related proteins in gastric cancer cells after the treatment with indicated concentrations of 9i for 24 h.
In this work, some other assays including colony formation assay, cell apoptosis assay and immunostaining assay were referred to our previous work[35]^,[36].

A further data set has as its system MGC-803 cells. Briefly: Annexin V-FITC/PI cell apoptosis assay, MGC-803 cells. As to conditions: MGC-803, high dose, 48 h. It counts as cell-based, human. Here is the method:
Bcl-2 regulated by the Hippo/YAP plays an important role in cell apoptosis. Therefore, we next examined the effects of compound 9i on cell apoptosis. MGC-803 and SGC-7901 cells were treated with compound 9i for 48 h, as shown in Figures 5(A,B), the nuclei of gastric cancer are dense and fragmented, and cells became round, small, and was induced to die. To determine the influence of compound 9i on cell death, MGC-803 and SGC-7901 cells treated with compound 9i were stained with Annexin V-FITC/PI. As shown in Figure 5(C), the high dose compound 9i treatment group induced over 60% of cell apoptosis at 48 h. As shown in Figure 5(D), some other apoptosis-related proteins were also regulated by compound 9i in MGC-803 and SGC-7901 cells. Compound 9i caused dose-dependent decreases of anti-apoptosis proteins c-IAP and Mcl-1. […] Mitochondrial membrane potential depolarisation and translocation from the mitochondria to the cytoplasm of cytochrome c are two key steps involved in the intrinsic apoptosis pathway. As shown in Figures 5(F–H), compound 9i depolarised mitochondrial membrane potential and induced the translocation of cytochrome c.
Figure 5. Compound 9i induced apoptosis in MGC-803 and SGC-7901 cells. Density ratios relative to β-Actin were shown on the top of each Western blotting band. […] The cell line of each row appears only in tiny plot titles that cannot be read with certainty. […]

The next data set relates to MCF-7 cells. Briefly: MTT antiproliferative assay, MCF-7 cells. As to conditions: exposure for 48 h. It counts as cell-based, human. On the procedure:
The in vitro antiproliferative activities of new target compounds 6a–6g, 9a–9i, 10a–10j, 11a–11j, and 14a–14d were evaluated against four human cancer cell lines (MGC-803, PC-3, HCT-116, and MCF-7) using MTT assay and 5-FU as a positive drug. The following Tables 1–[4] depicted the results of in vitro antiproliferative activity.
as §2, §3

The test system of a further data set is SGC-7901 cells. Briefly: MTT antiproliferative assay, SGC-7901 gastric cancer cells. It counts as cell-based. As to conditions: Homo sapiens, SGC-7901, exposure for 48 h. Here is the method: as §1, §2, §3

Experimental findings from publication PMC8386742, “Discovery of N-aryl sulphonamide-quinazoline derivatives as anti-gastric cancer agents in vitro and in vivo via activating the Hippo signalling pathway” (Journal of Enzyme Inhibition and Medicinal Chemistry, 2021) are described below.

With `COc1ccc(S(=O)(=O)N(Cc2nc(C)c3ccccc3n2)c2cc(OC)c(OC)c(OC)c2)cc1` [Compound 9i, 4-Methoxy-N-((4-methylquinazolin-2-yl)methyl)-N-(3,4,5-trimethoxyphenyl) benzene-sulfonamide], the “blood biochemical indexes (ALT, AST, T-BIL, UA, CRE, BUN) versus vehicle control group” value in data set [1] (blood samples after execution) is listed as “no significant difference”. The toxicity in vivo result in data set [1] (body weight, blood biochemistry, H&E staining of organs) is “did not show obvious toxicity in vivo”. The “bodyweight of mice versus vehicle control group” value in data set [1] (recorded every 3 days during 21 days treatment) is given as “did not show a significant difference”. In addition, the IC50 in the data set on HUEVC cells came out at 26200 nM; with MCF-7 cells (Homo sapiens, MCF7, 48 h), 816 nM; in the data set on MCF-7 cells it was 810 ± 60 nM; in the data set with SGC-7901 cells it was 376 nM. Besides, the colony formation entry in data set [2] is recorded as “significantly decreased”. Besides, the cell apoptosis result in the data set on MGC-803 cells was “over 60%”.
